Legend:
[1] = test system: Aorta; experiment: Inhibition of contractions in aorta (indication of selectivity); format: cell-based
[2] = test system: Isolated Rat Bladder Strips; experiment: Inhibition of contractions in isolated rat bladder strips; format: cell-based
Experimental: Sprague-Dawley rats (150-200 g) are rendered unconscious by CO2 asphyxiation and then euthanized by cervical dislocation. […] The bladder is opened and then cut into strips 1-2 mm in width and 7-10 mm in length. The strips are subsequently suspended in a 10 mL tissue bath under an initial resting tension of 1.5 g. The strips are held in place by two surgical clips one of which is attached to a fixed hook while the other is attached to an isometric force transducer. […] The carbachol is then washed out and the tissue allowed to relax to its resting level of activity. Following a further 30 min period of recovery an additional 15 mM KCl are introduced into the tissue bath. […] Following stabilization of this enhanced level of contractile activity, incremental increases in the concentration of test compound or vehicle are introduced into the tissue bath. Contractile activity is measured for each compound or vehicle concentration during the last minute of a 30 minute challenge.

[3] = molecular target: T1, calcium-dependent large conductance potassium channels (maxi K^+) (Rattus norvegicus, UniProt Q62976); experiment: Potassium channel activation, whole cell patch clamp in isolated rat detrusor cells; format: cell-based; details: 10 μM in superfusate; isolated rat bladder cells
T1 construct: endogenous in cells; host or cells: freshly isolated rat detrusor (urinary bladder smooth muscle) cells
Experimental: Potassium channel activation by compounds of the present invention was established by examining the effect of the compound of Example 1 on calcium-dependent large conductance potassium channels (maxi K^+) as follows:
Rat detrusor cells were isolated in a manner previously described for guinea-pig detrusor (Sheldon and Argentieri, 1995). Male Sprague-Dawley rats (200-400 grams) were euthanized by CO2 inhalation and exsanguination. Their urinary bladders were rapidly removed and placed in 37° C. physiological solution with the following composition (mM): Na glutamate (80.0), NaCl (54.7), KCl (5.0), NaHCO3 (25.0), MgCl2.2H2 O (2.5), D-glucose (11.8) and CaCl2 (0.2) gassed with CO2 --O2, 95%/5% for a final pH of 7.4. The dome of the bladder was isolated from the trigon region and the mucosa was removed. This tissue was then cut into 2-3 mm wide strips and placed in fresh buffer for 1 hour. Tissues were then transferred into 10.0 ml of an isolation buffer containing the above composition plus collagenase type VIII (1.0 mg/ml) and pronase (0.25 mg/ml). After 10 minutes the isolation buffer was replaced with fresh isolation buffer for an additional 10 min. […]
Whole cell recordings were made using broken patch assess. […] After stability was achieved control currents were recorded. […] Currents were recorded for 5 to 10 minutes or until compound effects reached steady state. […]

[4] = test system: swelling induced chloride channel current; experiment: Chloride channel blockade, swelling induced chloride current in bladder cells; format: cell-based, guinea pig; details: bladder cell, ICl type swelling (210 mOsm), 60 mV
From the text: Normal human bronchial epithelial cells (NHBE) were commercially available from Clonetics Corporation (San Diego, Calif.) and bladder cells were isolated from rat bladder.
The normal external solution contained (in mM): N-methyl d-Glucamine chloride (NMDGCl). 140, MgCl2 2, CaCl2 2 and 4-(2-hydroxyethyl)-1-piperazine ethanesulfonic acid (HEPES) 10. The normal pipette solution contained (in mM): NMDGCl. 125, HEPES 10, MgCl2 2, ethylenebis(oxonitrilo)tetaaacetate (EGTA) 2, and ATPMg 5, the pH adjusted to 7.3 with TRIS. To identify the leak conductance from depolarization, internal Cl ion concentration was reduced to 40 mM using glutamic acid (ECl approximately -31 mV according Nernst equation). The osmolarity for standard external solution was about 280 mOsm. Hypotonic solutions were obtained by diluting the normal external solution with distilled water.
The whole cell voltage clamp recording techniques were utilized to record membrane ionic currents. The volume of the recording chamber was 1 ml and the rate of superfusion was 4 ml/min. Membrane currents were recorded using an Axopatch 200A Patch Clamp Amplifier (Axon Instruments, Inc., Foster City, Calif.). Under voltage clamp conditions, the cells were stimulated at 0.2 Hz to be sure channels were completely recovered between two voltage steps. […]

T1 sequence (Q62976 whole entry): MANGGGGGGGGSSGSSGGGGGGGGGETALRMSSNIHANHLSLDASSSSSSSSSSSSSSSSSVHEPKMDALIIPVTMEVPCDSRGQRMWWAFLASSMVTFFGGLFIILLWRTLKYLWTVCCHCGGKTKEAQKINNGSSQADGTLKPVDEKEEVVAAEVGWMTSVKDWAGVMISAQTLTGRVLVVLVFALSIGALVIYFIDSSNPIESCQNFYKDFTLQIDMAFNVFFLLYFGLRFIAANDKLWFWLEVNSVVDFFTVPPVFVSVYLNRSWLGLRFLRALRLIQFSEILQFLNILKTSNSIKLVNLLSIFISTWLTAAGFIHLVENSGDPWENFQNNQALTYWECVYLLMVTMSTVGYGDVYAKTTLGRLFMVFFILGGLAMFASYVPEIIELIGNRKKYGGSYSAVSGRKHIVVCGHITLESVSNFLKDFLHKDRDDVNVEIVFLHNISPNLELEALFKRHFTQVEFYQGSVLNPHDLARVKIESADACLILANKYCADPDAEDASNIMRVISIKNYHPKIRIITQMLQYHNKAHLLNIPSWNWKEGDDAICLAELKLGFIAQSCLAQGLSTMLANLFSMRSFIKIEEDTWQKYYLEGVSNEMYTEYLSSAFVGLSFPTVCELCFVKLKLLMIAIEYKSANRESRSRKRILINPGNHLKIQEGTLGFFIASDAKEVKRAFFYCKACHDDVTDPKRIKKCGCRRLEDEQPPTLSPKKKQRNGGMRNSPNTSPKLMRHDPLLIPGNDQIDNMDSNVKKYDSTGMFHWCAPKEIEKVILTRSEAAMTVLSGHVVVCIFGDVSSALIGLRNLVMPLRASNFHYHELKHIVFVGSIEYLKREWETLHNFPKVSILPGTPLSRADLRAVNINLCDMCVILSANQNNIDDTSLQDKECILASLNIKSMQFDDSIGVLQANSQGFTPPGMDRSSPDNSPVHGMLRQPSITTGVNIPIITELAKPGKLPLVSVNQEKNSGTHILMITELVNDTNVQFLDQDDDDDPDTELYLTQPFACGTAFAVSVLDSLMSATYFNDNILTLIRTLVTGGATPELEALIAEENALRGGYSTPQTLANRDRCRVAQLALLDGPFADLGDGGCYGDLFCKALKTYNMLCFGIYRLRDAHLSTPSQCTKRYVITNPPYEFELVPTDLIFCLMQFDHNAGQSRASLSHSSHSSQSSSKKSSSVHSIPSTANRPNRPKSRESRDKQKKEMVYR
T1 sequence (P97678 whole entry partner): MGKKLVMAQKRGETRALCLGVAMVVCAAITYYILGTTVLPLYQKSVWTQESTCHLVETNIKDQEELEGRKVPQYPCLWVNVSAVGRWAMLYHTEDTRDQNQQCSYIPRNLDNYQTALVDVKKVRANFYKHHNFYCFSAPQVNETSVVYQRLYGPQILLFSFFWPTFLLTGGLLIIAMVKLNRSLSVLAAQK

SMILES: C/C(=C\c1ccc(C(F)(F)F)cc1)C(=O)Nc1ccccc1C(=O)[O-].[Li+] [Example 1, Step 4, (E)-2-[2-Methyl-3-(4-trifluoromethyl-phenyl)-acryloylamino]-benzoic acid lithium salt]
- IC50 [1]: 41.9 ± 8.4 µM
- IC50 ([2]; contractions enhanced by additional 15 mM KCl, isolated rat bladder strips, read-out: IC50 /μM Bladder (B)): 1.07 ± 0.37 µM
- IC50 (A)/ IC50 (B) ([2]; ratio aorta/bladder, indication of selectivity): 39.6
- effect on outward current [3]: increase in outward current that was reversible upon washout
- % blockade 20 μM [4]: 67%

From patent publication US6046239A, “Anthranilic acid analogs” (American Home Products Corporation, priority 1998, dated 2000)
